From patent US11510931B2, “Compositions and methods for treating ophthalmic conditions” (MEDICON PHARMACEUTICALS, INC., priority 2016, dated 2022)
Read-outs that look alike come from different tables or passages of the source.

Assay: Ocular biodistribution of PS after topical eye drops in New Zealand white rabbits (HPLC)
Type: in vivo, rabbit
Settings: for concentration at 5 h / concentration at 8 h / concentration at 1 h / concentration at 3 h / concentration at 6 h: New Zealand white, rabbit; for concentration at 1 h: 3.5 % PS solution (eye drops), 3.5% PS solution in propylene glycol
Method: Results: The above PS formulation was administered topically as eye drops to the eyes of New Zealand white rabbits. The levels of PS in ocular tissues 1 h and 3 h later were determined by HPLC. The Table below summarizes the findings:
Results: The above PS formulation was administered topically as eye drops to the eyes of New Zealand white rabbits. The levels of PS in ocular tissues at 2 h later were determined by HPLC. The table below summarizes the findings.
Results: PS in this formulation was administered topically to the eyes of New Zealand white rabbits and its biodistribution was determined as above. The Table below summarizes the findings.
Results: PS in this formulation was administered topically as eye drops to the eyes of New Zealand white rabbits. The biodistribution of PS in ocular tissues at 3 h and 6 h was determined by HPLC. The Table below summarizes the findings.
Biodistribution of PS after topical administration: PS formulated in nanoparticles as above was administered topically as eye drops to New Zealand white rabbits. The biodistribution of PS in ocular tissues at the indicated time points post administration was determined by HPLC. The Table below summarizes the findings.
Biodistribution of PS after topical administration: PS in the formulations was administered topically as eye drops to the eyes of New Zealand white rabbits. The levels of PS in ocular tissues at 0.5 h, 1 h and 3 h were determined by HPLC. The Table below summarizes the findings.
To assess the contribution of the foregoing formulations to the PK/biodistribution of PS in the ocular tissues, a solution of PS in pure propylene glycol (PG) was studied. PG is well tolerated by the eye. A 3.5% PS solution (in PG) as eye drops was administered topically to the eyes of New Zealand white rabbits and its 1-hour biodistribution was determined by HPLC. The Table summarizes the findings.

[1] = 0.5 h, topical, 0.4% gellan gum in-situ gel, 2.4-3% PS
[2] = 1 h, topical eye drops, 3.5% PS/16% Vitamin E TPGS/mannitol/boric acid
[3] = 1 h, topical, 0.4% gellan gum in-situ gel, 2.4-3% PS
[4] = 1 h, topical, sodium alginate/Tween 80 in-situ gel, 3% PS
[5] = 2 h, topical, 0.5% gellan gum in-situ gel, 2.4~3% PS
[6] = 3 h, topical eye drops, 3.5% PS/16% Vitamin E TPGS/mannitol/boric acid
[7] = 3 h, topical, 0.4% gellan gum in-situ gel, 2.4-3% PS
[8] = 3 h, topical, Poloxamer 407 in-situ gel, 5.4% PS
[9] = 3 h, topical, sodium alginate/Tween 80 in-situ gel, 3% PS
[10] = 5 h, topical, 0.4% gellan gum in-situ gel, 2.4-3% PS
[11] = 5 h, topical, sodium alginate/Tween 80 in-situ gel, 3% PS
[12] = 8 h, topical, 0.4% gellan gum in-situ gel, 2.4-3% PS

## CCOP(=O)(OCC)OCCCCOC(=O)CC1=C(C)/C(=C/c2ccc([S+](C)[O-])cc2)c2ccc(F)cc21 (stereo not shown) [PS, phosphosulindac]
[1]
  PS in Aqueous humor: 0.6 µM
  PS in Conjunctiva: 37.7 µM
  PS in Cornea: 24.3 µM
[2]
  PS in Aqueous humor: 2.3 µM
  PS in Choroid: 3.2 µM
  PS in Conjunctiva: 9.3 µM
  PS in Cornea: 6.9 µM
  PS in Iris: 0.7 µM
  PS in Lacrimal gland: 0.1 µM
  PS in Lens: 1.8 µM
  PS in Retina: 2.7 µM
  PS in Sclera: 2.3 µM
  PS in Vitreous body: 3.6 µM
[3]
  PS in Aqueous humor: 0.4 µM
  PS in Conjunctiva: 20.8 µM
  PS in Cornea: 50.8 µM
[4]
  PS in Aqueous humor: 0.4 µM
  PS in Conjunctiva: 4.9 µM
  PS in Cornea: 17.8 µM
[5]
  PS in Aqueous humor: 1.2 µM
  PS in Conjunctiva: 24.1 µM
  PS in Cornea: 72.0 µM
[6]
  PS in Aqueous humor: 0.1 µM
  PS in Choroid: 0.2 µM
  PS in Conjunctiva: 0.5 µM
  PS in Cornea: 0.8 µM
  PS in Iris: 0.9 µM
  PS in Lacrimal gland: 0.5 µM
  PS in Lens: 0.1 µM
  PS in Retina: 0.2 µM
  PS in Sclera: 0.2 µM
[7]
  PS in Conjunctiva: 0.7 µM
  PS in Cornea: 1.5 µM
[8]
  PS in Choroid: 0.9 µM
  PS in Cornea: 45.1 µM
[9]
  PS in Aqueous humor: 0.3 µM
  PS in Conjunctiva: 2.1 µM
  PS in Cornea: 5.0 µM
[10]
  PS in Conjunctiva: 1.1 µM
  PS in Cornea: 1.1 µM
[11]
  PS in Conjunctiva: 2.3 µM
  PS in Cornea: 1.0 µM
[12]
  PS in Conjunctiva: 0.7 µM
  PS in Cornea: 1.6 µM
8 h, topical, sodium alginate/Tween 80 in-situ gel, 3% PS
  PS in Conjunctiva: 1.3 µM
Aqueous humor, topical, 3 % PS, 5 h, topical, sodium alginate/Tween 80 in-situ gel, 3% PS, read-out: PS in Aqueous humor
  concentration at 5 h: 0 nM
Aqueous humor, topical, 3 % PS, 8 h, topical, sodium alginate/Tween 80 in-situ gel, 3% PS, read-out: PS in Aqueous humor
  concentration at 8 h: 0 nM
Aqueous humor, topical, 1 h, topical eye drops, read-out: PS in Aqueous humor
  concentration at 1 h: 700 nM
Aqueous humor, topical, 5.4 % PS, 3 h, topical, Poloxamer 407 in-situ gel, 5.4% PS, read-out: PS in Aqueous humor
  concentration at 3 h: 300 nM
Aqueous humor, topical, 5.4 % PS, topical, Poloxamer 407 in-situ gel, 5.4% PS, read-out: PS in Aqueous humor
  concentration at 6 h: 300 nM
Aqueous humor, topical, 3 h, topical, 0.4% gellan gum in-situ gel, 2.4-3% PS, read-out: PS in Aqueous humor
  concentration at 3 h: 0 nM
Aqueous humor, topical, 5 h, topical, 0.4% gellan gum in-situ gel, 2.4-3% PS, read-out: PS in Aqueous humor
  concentration at 5 h: 0 nM
Aqueous humor, topical, 8 h, topical, 0.4% gellan gum in-situ gel, 2.4-3% PS, read-out: PS in Aqueous humor
  concentration at 8 h: 0 nM
choroid, topical, 1 h, topical eye drops, read-out: PS in Choroid
  concentration at 1 h: 0 nM
choroid, topical, 5.4 % PS, topical, Poloxamer 407 in-situ gel, 5.4% PS, read-out: PS in Choroid
  concentration at 6 h: 0 nM
